In article PMC5183552 (Neuropharmacology, 2016):
Where two headings read alike, the source gives them in different places. Values belong to the compound of their own block, whether it stands above or below them.

What was measured:
[1] = target: T1, mouse A1AR (Mus musculus, UniProt Q60612); test: Radioligand binding, recombinant mouse A1AR in HEK-293 membranes
T1 sequence (Q60612 1-326): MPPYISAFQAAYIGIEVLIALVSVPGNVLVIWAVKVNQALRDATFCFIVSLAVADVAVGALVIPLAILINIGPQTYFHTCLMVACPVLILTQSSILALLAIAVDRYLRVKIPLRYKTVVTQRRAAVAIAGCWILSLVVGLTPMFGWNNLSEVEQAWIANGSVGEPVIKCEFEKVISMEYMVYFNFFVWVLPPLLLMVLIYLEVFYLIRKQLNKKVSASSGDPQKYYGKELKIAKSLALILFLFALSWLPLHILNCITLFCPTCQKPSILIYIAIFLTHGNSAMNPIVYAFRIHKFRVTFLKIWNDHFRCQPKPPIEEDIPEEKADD

[2] = target: T2, mouse A2AAR (Mus musculus, UniProt Q60613); test: Radioligand binding, recombinant mouse A2AAR in HEK-293 membranes; details: read-out: % inhibition at 10 µM, mouse A2AAR
[3] = target: T3, mouse A3AR (Mus musculus, UniProt Q61618); test: Radioligand binding, recombinant mouse A3AR in HEK-293 membranes
T3 sequence (Q61618 1-319): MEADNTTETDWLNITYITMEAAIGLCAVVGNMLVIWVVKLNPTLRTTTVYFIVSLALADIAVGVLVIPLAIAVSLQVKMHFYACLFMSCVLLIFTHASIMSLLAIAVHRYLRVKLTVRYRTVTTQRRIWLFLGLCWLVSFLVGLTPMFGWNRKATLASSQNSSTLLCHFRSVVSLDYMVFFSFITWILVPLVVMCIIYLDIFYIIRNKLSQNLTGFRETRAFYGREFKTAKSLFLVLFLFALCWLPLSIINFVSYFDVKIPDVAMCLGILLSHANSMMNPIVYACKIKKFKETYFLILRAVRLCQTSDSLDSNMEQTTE

[4] = target: T4, Human A1AR (Homo sapiens, UniProt P30542); test: Ligand binding affinity at human A1AR
T4 sequence (P30542 1-326): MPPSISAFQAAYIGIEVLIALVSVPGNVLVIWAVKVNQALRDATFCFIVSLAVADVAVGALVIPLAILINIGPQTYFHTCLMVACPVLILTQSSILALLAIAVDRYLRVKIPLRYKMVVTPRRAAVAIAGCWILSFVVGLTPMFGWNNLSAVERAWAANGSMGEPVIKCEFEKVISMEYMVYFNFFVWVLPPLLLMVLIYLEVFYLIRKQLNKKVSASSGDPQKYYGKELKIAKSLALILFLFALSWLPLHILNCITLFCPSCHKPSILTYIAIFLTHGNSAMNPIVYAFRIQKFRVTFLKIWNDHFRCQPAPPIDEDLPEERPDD

[5] = target: T5, Human A2AAR (Homo sapiens, UniProt P29274); test: Ligand binding affinity at human A2AAR
[6] = target: T6, Human A3AR (Homo sapiens, UniProt P0DMS8); test: Ligand binding affinity at human A3AR
T6 sequence (P0DMS8 1-318): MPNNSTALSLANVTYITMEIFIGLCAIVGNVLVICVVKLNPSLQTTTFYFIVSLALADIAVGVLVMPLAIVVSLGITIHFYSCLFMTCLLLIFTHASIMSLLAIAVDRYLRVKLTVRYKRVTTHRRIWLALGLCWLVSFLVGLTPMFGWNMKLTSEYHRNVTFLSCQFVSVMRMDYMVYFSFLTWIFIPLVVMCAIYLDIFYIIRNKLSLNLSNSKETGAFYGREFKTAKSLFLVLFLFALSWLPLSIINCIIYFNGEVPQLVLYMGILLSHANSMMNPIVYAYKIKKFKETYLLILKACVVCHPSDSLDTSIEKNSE

[7] = test system: mice; test: Body temperature; assay type: in vivo, mouse
[8] = target: T5, Human A2AAR; details: read-out: Ki, human A2AAR; ref Tosh et al, 2012b; cited from earlier work
[9] = target: T2, mouse A2AAR; details: read-out: Ki, mouse A2AAR; ref Ge et al, 2006; cited from earlier work
[10] = C57BL/6J mice, 0.03–3 mg/kg, i.p.
[11] = C57BL/6J mice, 0.02–0.2 mg/kg, i.p., dose-dependent

T2 sequence (Q60613 whole entry): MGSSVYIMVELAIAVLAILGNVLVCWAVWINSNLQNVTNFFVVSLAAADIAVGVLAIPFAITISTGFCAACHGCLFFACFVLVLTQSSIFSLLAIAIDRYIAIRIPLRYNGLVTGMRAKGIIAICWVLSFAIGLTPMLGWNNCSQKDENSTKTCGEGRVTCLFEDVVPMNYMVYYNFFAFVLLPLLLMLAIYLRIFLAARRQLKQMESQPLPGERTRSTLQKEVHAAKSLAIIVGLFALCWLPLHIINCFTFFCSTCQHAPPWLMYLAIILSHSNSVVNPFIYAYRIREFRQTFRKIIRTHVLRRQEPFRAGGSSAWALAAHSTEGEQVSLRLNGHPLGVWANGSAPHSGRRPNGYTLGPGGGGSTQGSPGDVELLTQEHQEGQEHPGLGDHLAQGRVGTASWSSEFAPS
T5 sequence (P29274 whole entry): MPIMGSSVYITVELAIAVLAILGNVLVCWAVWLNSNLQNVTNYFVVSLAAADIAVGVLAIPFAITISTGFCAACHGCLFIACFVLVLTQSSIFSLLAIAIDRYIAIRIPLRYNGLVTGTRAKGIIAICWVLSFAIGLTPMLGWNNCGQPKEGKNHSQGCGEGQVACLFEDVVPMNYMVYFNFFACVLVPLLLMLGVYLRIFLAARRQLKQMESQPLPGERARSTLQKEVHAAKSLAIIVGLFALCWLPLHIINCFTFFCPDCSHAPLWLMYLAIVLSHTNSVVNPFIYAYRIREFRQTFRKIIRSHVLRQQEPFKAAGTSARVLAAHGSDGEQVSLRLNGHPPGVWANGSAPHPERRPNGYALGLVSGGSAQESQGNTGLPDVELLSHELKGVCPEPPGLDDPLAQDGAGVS

Ki [1]: 0.00108 ± 4e-05 µM
Selectivity for binding to mouse A1AR over A3AR ([1]; from Table 1 Ki values): ~ 3000 fold
inhibition at 10 µM [2]: 33 ± 2%
Ki [3]: 3.11 ± 0.183 µM
Ki [4]: 0.00792 ± 0.00155 µM
Ki [5]: 3.78 ± 0.89 µM
Ki [6]: 0.246 ± 0.021 µM
SMILES: O=S(=O)(O)c1ccc(Nc2ncnc3c2ncn3[C@@H]2O[C@H](CO)[C@@H](O)[C@H]2O)cc1 [SPA, N^6-(p-sulfo-phenyl)adenosine]

SMILES: O[C@@H]1[C@@H]2C[C@@H]2C(n2cnc3c(NC(C4CC4)C4CC4)nc(Cl)nc32)[C@@H]1O (stereo partly drawn) [MRS5474, (1R,2R,3S,5S)-4-(2-chloro-6-((dicyclopropylmethyl)amino)-9H-purin-9-yl)bicyclo[3.1.0]hexane-2,3-diol]
Receptor mediating hypothermia (Adora1−/− and Adora3−/− mice) ([7]; 3 mg/kg, i.p.): via A3AR, without a clear contribution from A1AR
Hypothermia after pretreatment with raclopride ([7]; 3 mg/kg, i.p., raclopride 1 mg/kg, data not shown): not inhibited
Effect on Tb ([7]; mice, doses in Fig. S2A,B): dose-dependent hypothermia
Effect on physical activity ([7]; mice, doses in Fig. S2A,B and data not shown): hypoactivity
Ki [8]: 3.95 µM

SMILES: OC[C@H]1O[C@@H](n2cnc3c(NC4CCCC4)ncnc32)[C@H](O)[C@@H]1O [CPA, N^6-cyclopentyladenosine]
Hypothermia in Adora1−/− mice vs wild type ([7]; 0.3 mg/kg, i.p.): not significantly attenuated
Hypothermia in Adora3−/− mice vs wild type ([7]; 0.3 mg/kg, i.p.): attenuated but still present
Effect on Tb [7, 10]: dose-dependent (0.03–3 mg/kg, i.p.) hypothermia
Effect on physical activity [7, 10]: reduction in physical activity

SMILES: COc1ccc(CN(CCN(C)C)c2ccccn2)cc1 [Pyrilamine, pyrilamine]
Effect of H1R antagonist on MRS5474-induced hypothermia ([7]; MRS5474 at dose selective for A3AR, inhibitor dosed 15 min before agonist): inhibited hypothermia
Effect of H1R antagonist on A1AR agonist-induced hypothermia ([7]; inhibitor dosed 15 min before agonist, Fig. S4A–D): did not block

SMILES: CNC(=O)[C@H]1O[C@@H](n2cnc3c(NCc4cccc(I)c4)nc(Cl)nc32)[C@H](O)[C@@H]1O [Cl-IB-MECA, 2-chloro-N6-(3-iodobenzyl)adenosine-5'-N-methylcarboxamide]
Ki [9]: ~10 µM

SMILES: OC[C@H]1O[C@@H](n2cnc3c(NC4CCCCC4)ncnc32)[C@H](O)[C@@H]1O [CHA, N^6-cyclohexyladenosine]
Ki [1]: 0.00215 ± 0.00037 µM
Hypothermia in Adora1−/− mice vs wild type ([7]; 0.05 mg/kg, i.p.): attenuated
Hypothermia in Adora1−/−;Adora3−/− double knockout mice ([7]; 0.05 mg/kg, i.p.): completely lost
Hypothermia in Adora3−/− mice vs wild type ([7]; 0.05 mg/kg, i.p.): attenuated
Effect on Tb [7, 11]: drop in Tb
Effect on duration of hypothermia [7, 11]: increase in duration of hypothermia
Effect on physical activity [7, 11]: reduced physical activity
